± gives the expanded uncertainty stated by the source.
Experiment: xn = mol fraction of the nth substance listed
Conditions: Gas; for viscosity: Oscillating disk viscometry; for mass density: Pycnometric method
[1] = 373.15 K, 2604 kPa, x2 = 0.7502
[2] = 373.15 K, 2789 kPa, x2 = 0.7502
[3] = 373.15 K, 2988 kPa, x2 = 0.7502
[4] = 398.15 K, 100.6 kPa, x2 = 0.7502
[5] = 398.15 K, 101.6 kPa, x2 = 0.2615
[6] = 398.15 K, 101.8 kPa, x2 = 0.5169
[7] = 398.15 K, 278.9 kPa, x2 = 0.2615
[8] = 398.15 K, 345.7 kPa, x2 = 0.5169
[9] = 398.15 K, 404.8 kPa, x2 = 0.7502
[10] = 398.15 K, 591.5 kPa, x2 = 0.5169
[11] = 398.15 K, 654.1 kPa, x2 = 0.2615
[12] = 398.15 K, 779.9 kPa, x2 = 0.7502
[13] = 398.15 K, 834.7 kPa, x2 = 0.5169
[14] = 398.15 K, 908.9 kPa, x2 = 0.2615
[15] = 398.15 K, 1036 kPa, x2 = 0.7502
[16] = 398.15 K, 1081 kPa, x2 = 0.5169
[17] = 398.15 K, 1153 kPa, x2 = 0.2615
[18] = 398.15 K, 1326 kPa, x2 = 0.5169
[19] = 398.15 K, 1374 kPa, x2 = 0.7502
[20] = 398.15 K, 1397 kPa, x2 = 0.2615
[21] = 398.15 K, 1569 kPa, x2 = 0.5169
[22] = 398.15 K, 1608 kPa, x2 = 0.2615
[23] = 398.15 K, 1667 kPa, x2 = 0.7502
[24] = 398.15 K, 1821 kPa, x2 = 0.2615
[25] = 398.15 K, 1824 kPa, x2 = 0.5169
[26] = 398.15 K, 2016 kPa, x2 = 0.7502
[27] = 398.15 K, 2031 kPa, x2 = 0.2615
[28] = 398.15 K, 2121 kPa, x2 = 0.5169
[29] = 398.15 K, 2251 kPa, x2 = 0.2615
[30] = 398.15 K, 2376 kPa, x2 = 0.5169
[31] = 398.15 K, 2376 kPa, x2 = 0.7502
[32] = 398.15 K, 2442 kPa, x2 = 0.2615
[33] = 398.15 K, 2634 kPa, x2 = 0.5169
[34] = 398.15 K, 2637 kPa, x2 = 0.2615
[35] = 398.15 K, 2813 kPa, x2 = 0.7502
[36] = 398.15 K, 2835 kPa, x2 = 0.2615
[37] = 398.15 K, 2884 kPa, x2 = 0.5169
[38] = 398.15 K, 3101 kPa, x2 = 0.2615
[39] = 398.15 K, 3115 kPa, x2 = 0.7502
[40] = 398.15 K, 3195 kPa, x2 = 0.5169
[41] = 398.15 K, 3322 kPa, x2 = 0.2615
[42] = 398.15 K, 3403 kPa, x2 = 0.7502
[43] = 398.15 K, 3432 kPa, x2 = 0.5169
[44] = 398.15 K, 3481 kPa, x2 = 0.2615
[45] = 398.15 K, 3698 kPa, x2 = 0.2615
[46] = 398.15 K, 3714 kPa, x2 = 0.5169
[47] = 398.15 K, 3825 kPa, x2 = 0.7502
[48] = 398.15 K, 3854 kPa, x2 = 0.2615
[49] = 398.15 K, 3961 kPa, x2 = 0.5169
[50] = 398.15 K, 3998 kPa, x2 = 0.2615
[51] = 398.15 K, 4086 kPa, x2 = 0.7502
[52] = 398.15 K, 4222 kPa, x2 = 0.5169
[53] = 398.15 K, 4343 kPa, x2 = 0.7502
[54] = 398.15 K, 4446 kPa, x2 = 0.5169
[55] = 398.15 K, 4642 kPa, x2 = 0.7502
[56] = 398.15 K, 4840 kPa, x2 = 0.7502
[57] = 423.15 K, 101.1 kPa, x2 = 0.7502

SMILES: CC(F)(F)Cl [1-chloro-1,1-difluoroethane] + FC(F)Cl
- viscosity [1]: 0.01618 ± 0.00053 mPa·s
- mass density [1]: 99.88 ± 0.24 kg/m3
- viscosity [2]: 0.01638 ± 0.00054 mPa·s
- mass density [2]: 110.3 ± 0.3 kg/m3
- viscosity [3]: 0.01665 ± 0.00054 mPa·s
- mass density [3]: 121.8 ± 0.3 kg/m3
- viscosity [4]: 0.01605 ± 0.00053 mPa·s
- mass density [4]: 2.753 ± 0.25 kg/m3
- viscosity [5]: 0.01472 ± 0.0005 mPa·s
- mass density [5]: 2.997 ± 0.25 kg/m3
- viscosity [6]: 0.01547 ± 0.00051 mPa·s
- mass density [6]: 2.886 ± 0.25 kg/m3
- viscosity (398.15 K, 102 kPa, x2 = 0.2615): 0.0147 ± 0.0005 mPa·s
- mass density (398.15 K, 102 kPa, x2 = 0.2615): 3.006 ± 0.25 kg/m3
- viscosity [7]: 0.01475 ± 0.0005 mPa·s
- mass density [7]: 8.354 ± 0.26 kg/m3
- viscosity [8]: 0.01548 ± 0.00051 mPa·s
- mass density [8]: 9.975 ± 0.26 kg/m3
- viscosity [9]: 0.01605 ± 0.00053 mPa·s
- mass density [9]: 11.29 ± 0.26 kg/m3
- viscosity (398.15 K, 468 kPa, x2 = 0.2615): 0.01477 ± 0.0005 mPa·s
- mass density (398.15 K, 468 kPa, x2 = 0.2615): 14.28 ± 0.26 kg/m3
- viscosity [10]: 0.01553 ± 0.00052 mPa·s
- mass density [10]: 17.39 ± 0.26 kg/m3
- viscosity [11]: 0.01482 ± 0.0005 mPa·s
- mass density [11]: 20.27 ± 0.26 kg/m3
- viscosity [12]: 0.01612 ± 0.00053 mPa·s
- mass density [12]: 22.29 ± 0.26 kg/m3
- viscosity [13]: 0.01557 ± 0.00052 mPa·s
- mass density [13]: 25.01 ± 0.26 kg/m3
- viscosity [14]: 0.01485 ± 0.0005 mPa·s
- mass density [14]: 28.88 ± 0.26 kg/m3
- viscosity [15]: 0.01619 ± 0.00053 mPa·s
- mass density [15]: 30.15 ± 0.26 kg/m3
- viscosity [16]: 0.01562 ± 0.00052 mPa·s
- mass density [16]: 33.05 ± 0.26 kg/m3
- viscosity [17]: 0.01493 ± 0.0005 mPa·s
- mass density [17]: 37.53 ± 0.26 kg/m3
- viscosity [18]: 0.01572 ± 0.00052 mPa·s
- mass density [18]: 41.4 ± 0.26 kg/m3
- viscosity [19]: 0.01628 ± 0.00053 mPa·s
- mass density [19]: 40.98 ± 0.26 kg/m3
- viscosity [20]: 0.01504 ± 0.0005 mPa·s
- mass density [20]: 46.73 ± 0.26 kg/m3
- viscosity [21]: 0.01584 ± 0.00052 mPa·s
- mass density [21]: 50.2 ± 0.26 kg/m3
- viscosity [22]: 0.0151 ± 0.00051 mPa·s
- mass density [22]: 55.16 ± 0.26 kg/m3
- viscosity [23]: 0.01642 ± 0.00054 mPa·s
- mass density [23]: 50.88 ± 0.26 kg/m3
- viscosity [24]: 0.01525 ± 0.00051 mPa·s
- mass density [24]: 63.97 ± 0.27 kg/m3
- viscosity [25]: 0.01596 ± 0.00053 mPa·s
- mass density [25]: 59.84 ± 0.27 kg/m3
- viscosity [26]: 0.01657 ± 0.00054 mPa·s
- mass density [26]: 63.22 ± 0.27 kg/m3
- viscosity [27]: 0.01542 ± 0.00051 mPa·s
- mass density [27]: 73.54 ± 0.27 kg/m3
- viscosity [28]: 0.01616 ± 0.00053 mPa·s
- mass density [28]: 71.87 ± 0.27 kg/m3
- viscosity [29]: 0.0156 ± 0.00052 mPa·s
- mass density [29]: 84.17 ± 0.27 kg/m3
- viscosity [30]: 0.01632 ± 0.00053 mPa·s
- viscosity [31]: 0.01679 ± 0.00055 mPa·s
- mass density [30]: 82.87 ± 0.27 kg/m3
- mass density [31]: 77.16 ± 0.27 kg/m3
- viscosity [32]: 0.01576 ± 0.00052 mPa·s
- mass density [32]: 94.09 ± 0.27 kg/m3
- viscosity [33]: 0.01655 ± 0.00054 mPa·s
- mass density [33]: 94.96 ± 0.27 kg/m3
- viscosity [34]: 0.01598 ± 0.00053 mPa·s
- mass density [34]: 105.1 ± 0.3 kg/m3
- viscosity [35]: 0.01711 ± 0.00055 mPa·s
- mass density [35]: 95.48 ± 0.27 kg/m3
- viscosity [36]: 0.01629 ± 0.00053 mPa·s
- mass density [36]: 117.2 ± 0.3 kg/m3
- viscosity [37]: 0.0168 ± 0.00055 mPa·s
- mass density [37]: 107.4 ± 0.3 kg/m3
- viscosity [38]: 0.01673 ± 0.00054 mPa·s
- mass density [38]: 136 ± 0.3 kg/m3
- viscosity [39]: 0.01741 ± 0.00056 mPa·s
- mass density [39]: 109.3 ± 0.3 kg/m3
- viscosity [40]: 0.01716 ± 0.00055 mPa·s
- mass density [40]: 124.9 ± 0.3 kg/m3
- viscosity [41]: 0.01724 ± 0.00056 mPa·s
- mass density [41]: 154.3 ± 0.3 kg/m3
- viscosity [42]: 0.01784 ± 0.00057 mPa·s
- mass density [42]: 128.5 ± 0.3 kg/m3
- viscosity [43]: 0.01752 ± 0.00056 mPa·s
- mass density [43]: 139.6 ± 0.3 kg/m3
- viscosity [44]: 0.01773 ± 0.00057 mPa·s
- mass density [44]: 170.2 ± 0.3 kg/m3
- viscosity [45]: 0.01858 ± 0.00059 mPa·s
- mass density [45]: 196.3 ± 0.3 kg/m3
- viscosity [46]: 0.01808 ± 0.00058 mPa·s
- mass density [46]: 159.3 ± 0.3 kg/m3
- viscosity [47]: 0.01827 ± 0.00058 mPa·s
- mass density [47]: 146.7 ± 0.3 kg/m3
- viscosity [48]: 0.01953 ± 0.00061 mPa·s
- mass density [48]: 222.4 ± 0.4 kg/m3
- viscosity [49]: 0.01865 ± 0.00059 mPa·s
- mass density [49]: 179.5 ± 0.3 kg/m3
- viscosity [50]: 0.02101 ± 0.00064 mPa·s
- mass density [50]: 261.2 ± 0.4 kg/m3
- viscosity [51]: 0.01865 ± 0.00059 mPa·s
- mass density [51]: 162.7 ± 0.3 kg/m3
- viscosity [52]: 0.01952 ± 0.00061 mPa·s
- mass density [52]: 204.9 ± 0.3 kg/m3
- viscosity [53]: 0.01918 ± 0.0006 mPa·s
- mass density [53]: 180.2 ± 0.3 kg/m3
- viscosity [54]: 0.02048 ± 0.00063 mPa·s
- mass density [54]: 231.6 ± 0.3 kg/m3
- viscosity [55]: 0.01991 ± 0.00062 mPa·s
- mass density [55]: 203.6 ± 0.3 kg/m3
- viscosity [56]: 0.0205 ± 0.00063 mPa·s
- mass density [56]: 218.9 ± 0.3 kg/m3
- viscosity [57]: 0.01682 ± 0.00055 mPa·s
- mass density [57]: 2.597 ± 0.29 kg/m3

From the NIST ThermoML archive (doi:10.1007/s10765-009-0579-1)
